pIC50, pKd: −log10 of the molar value. Structures can show the parent of a compound that is named as a salt.
Key:
AR [1] = biological target: T1, AR (Homo sapiens, UniProt P10275); test: AR binding
T1 sequence (P10275 1-920): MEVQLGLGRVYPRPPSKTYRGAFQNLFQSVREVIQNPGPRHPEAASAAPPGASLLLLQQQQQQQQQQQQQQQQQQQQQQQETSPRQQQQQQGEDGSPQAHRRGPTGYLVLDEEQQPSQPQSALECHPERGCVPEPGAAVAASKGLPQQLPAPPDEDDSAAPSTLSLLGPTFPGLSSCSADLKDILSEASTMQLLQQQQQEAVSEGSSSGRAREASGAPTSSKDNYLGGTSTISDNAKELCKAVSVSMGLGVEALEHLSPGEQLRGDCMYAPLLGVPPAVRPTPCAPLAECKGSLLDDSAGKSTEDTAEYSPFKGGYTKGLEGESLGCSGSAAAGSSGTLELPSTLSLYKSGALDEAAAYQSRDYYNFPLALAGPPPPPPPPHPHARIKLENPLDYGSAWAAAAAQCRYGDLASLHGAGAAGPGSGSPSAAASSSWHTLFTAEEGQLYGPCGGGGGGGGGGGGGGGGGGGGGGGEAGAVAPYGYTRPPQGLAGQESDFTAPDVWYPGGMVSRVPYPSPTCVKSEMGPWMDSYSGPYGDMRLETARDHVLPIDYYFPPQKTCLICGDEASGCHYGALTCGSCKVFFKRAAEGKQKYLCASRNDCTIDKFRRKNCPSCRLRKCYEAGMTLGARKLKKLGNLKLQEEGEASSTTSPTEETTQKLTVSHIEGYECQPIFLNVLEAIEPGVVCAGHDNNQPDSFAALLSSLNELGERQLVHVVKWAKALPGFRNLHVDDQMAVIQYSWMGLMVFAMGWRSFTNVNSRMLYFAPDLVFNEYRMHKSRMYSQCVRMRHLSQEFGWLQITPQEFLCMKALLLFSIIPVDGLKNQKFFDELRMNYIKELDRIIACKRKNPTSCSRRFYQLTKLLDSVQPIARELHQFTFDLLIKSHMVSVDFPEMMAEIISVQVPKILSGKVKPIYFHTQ
Description: In particular, JN018 has the following properties: (1) AR TAD is its molecular target. […] (3) JN018 induces rapid degradation of the full-length AR (ARFL) and constitutively active AR splice variants (ARSV) that lack a functional LBD. […] (5) JN018 causes growth inhibition of castration resistant prostate cancer xenografts. (6) JN018 inhibits AR-driven gene expression.

[2] = test system: prostate cancer cell lines; test: Growth inhibition of prostate cancer cell lines (IC50); assay type: cell-based
[3] = test system: AR regulated genes (TMPRSS, NDRG), AR^FL, AR-V7; test: Expression of AR-regulated genes (Western blot); assay type: cell-based
Experimental: 22Rv1 and CWR22 cells were exposed to JN018 at the indicated concentrations (in μM) for 24 hours before protein extraction for Western blotting.
JN018 was further evaluated to identify a mechanism for its activity in prostate cancer cell lines. It was discovered that JN018 inhibits the expression of AR regulated genes. […] In principle, decreased AR expression can be attributed to several different effects, such as gene transcription, mRNA stability, translation, or protein stability.

[4] = test system: AR positive PCa cells (LNCaP, LNCaP-AR, CWR22, 22Rv1, LAPC4); test: MTT / CellTiter GLO cell viability, AR positive prostate cancer cells
Experimental: (§1) The results are means of quadruplicate expts±s.d. Top panel: CellTiter GLO luminescent bioassay (arbitrary units on vertical axis). Bottom panel: classical MTT assay ([blue/yellow]=[viable/non-viable]).
(§2) Experiments were performed in quadruplicate; results are means+/−s.d.
Results were normalized to that of vehicle control. Experiments were performed in quadruplicate; results are means+/−s.d.
Next, the effects of the compounds on growth of prostate cancer cell lines in vitro were evaluated.

[5] = test system: AR-null PCa cells (DU145, PC3); test: MTT / CellTiter GLO cell viability, AR-null prostate cancer cells
Experimental: as §1, §2
AR null PC3 cells were exposed to the indicated compounds for 6 days; cell viability was measured by MTT assay. Results were normalized to that of vehicle control. Experiments were performed in quadruplicate; results are means+/−s.d.
For each compound and concentration in the figure, the bars represent relative cell viability of 22Rv1, LAPC4, and DU145, from left to right.
For each compound and concentration in the figure, the bars represent relative cell viability of CWR22 and PC3, from left to right.

AR [6] = biological target: AR (Homo sapiens, UniProt P10275); test: AR inhibition (reporter activity of full-length AR and AR splice variants)
c-Jun TAD = test: JUN-TAD fused to GAL4 DNA-binding domain reporter assay; assay type: cell-based; conditions: Table 3 grade HIGH/MED/LOW, grades not defined
Description: The inhibitory activity of JN018 was further evaluated in experiments in which the AR transactivation domain (TAD) or the c-Jun or CREB TAD was fused to the heterologous GAL4 DNA-binding domain and thereby drive reporter gene expression governed by the GAL4 response element (FIG. 1).

[7] = test system: CREB mediated reporter activity; test: CRE / CREB mediated reporter assay; assay type: cell-based
[8] = Table 3 grade HIGH/MED/LOW, grades not defined

Compound: C=C(CN(C)Cc1ccccc1)C(=O)/C(=C/c1ccc(Cl)cc1)c1ccccc1 [JN018, (E)-4-((Benzyl(methyl)amino)methyl)-1-(4-chlorophenyl)-2-phenylpenta-1,4-dien-3-one hydrochloride]
- binding to the AR (AR [1]; result in words): direct, selective, high affinity covalent binding
- pKd (AR [1]; unit inferred): 8.14
- pIC50 [2]: 5.82
- full length AR and AR-V7 expression [3]: reduces both full length AR and AR-V7 expression
- expression of TMPRSS and NDRG ([3]; 22Rv1 and CWR22 cells, 24 hours): reduces expression of TMPRSS and NDRG in a dose-dependent fashion
- MTT AR-Pos [4, 8]: HIGH
- growth of AR expressing prostate cancer cells ([4]; result in words): inhibits the growth
- MTT AR-Neg [5, 8]: LOW
- growth of AR null prostate cancer cells ([5]; result in words): had no effect
- reporter activity of endogenously and ectopically expressed full-length AR and AR-V7 (AR [6]; LNCaP, LNCaP-AR, 22Rv1, PC3 transfected with ARΔ567): inhibits the reporter activity
- pIC50 (AR [6]; read-out: IC50 for AR inhibition): 6.96
- JUN-TAD (c-Jun TAD): LOW
- CRE [7, 8]: LOW
- CREB mediated reporter activity ([7]; result in words): does not affect
